In US20110071158A1, “NEW COMPOUNDS” (BOEHRINGER INGELHEIM INTERNATIONAL GMBH, priority 2009, published 2011):

What follows are molecules tested against T1, PTK2 enzyme (Homo sapiens, UniProt Q05397) (assay: PTK2 enzyme test, Assay 2 (DELFIA, poly-Glu-Tyr substrate, antibody PT66)). Settings: Assay 2 (values marked *); 1 h pre-incubation, 0.5% DMSO.
T1 construct: purchased Invitrogen PV3832
Format: biochemical
Source text: This test uses active PTK2 enzyme (Invitrogen Code PV3832) and poly-Glu-Tyr (4:1, Sigma P-0275) as the kinase substrate. The kinase activity is detected by means of the phosphorylation of the substrate in a DELFIA™ assay. The phosphorylated substrate is detected with the europium-labelled phosphotyrosine antibody PT66 (Perkin Elmer, No.: AD0040).
In order to determine concentration-activity curves with PTK2-inhibitors the compounds are serially diluted first of all in 10% DMSO/H2O and then in kinase dilution buffer (20 mM TRIS/HCl pH 7.5, 0.1 mM EDTA, 0.1 mM EGTA, 0.286 mM sodium orthovanadate, 10% glycerol with the addition of freshly prepared BSA (fraction V, 1 mg/mL) and DTT (1 mM)) and 10 μL of each dilution are dispensed per well in a 96-well microtitre plate (clear U-shaped base plate, Greiner No. 650101) (the inhibitors are tested in duplicates) and mixed with 10 μL/well of PTK2 kinase (0.01 μg/well). PTK2 kinase is diluted accordingly beforehand with kinase dilution buffer. The diluted PTK2 inhibitor and the PTK2 kinase are pre-incubated for 1 h at RT and shaken at 500 revolutions per min. Then 10 μL/well poly-Glu-Tyr substrate (25 μg/well poly-Glu-Tyr, 0.05 μg/well biotinylated poly-Glu-Tyr dissolved in 250 mM TRIS/HCl pH 7.5, 9 mM DTT) are added. The reaction is started by the addition of 20 μL of ATP Mix (30 mM TRIS/HCl pH 7.5, 0.02% Brij, 0.2 mM sodium orthovanadate, 10 mM magnesium acetate, 0.1 mM EGTA, 1× phosphatase inhibitor cocktail 1 (Sigma, No.: P2850), 50 μM ATP (Sigma, No.: A3377; 15 mM stock solution))—the final concentration of DMSO is 0.5%. After 1 h kinase reaction (the plates are shaken at 500 rpm), the reaction is stopped by the addition of 12 μL/well of 100 mM EDTA, pH 8, and shaken for a further 5 min at RT (500 U/min). 55 μL of the reaction mixture are transferred into a streptavidin plate (Strepta Well High Bind (transparent, 96-well) made by Roche, No.: 11989685001) and incubated for 1 h at RT (shaking at 500 rpm). Then the microtitre plate is washed five times with 200 μL/well D-PBS (Invitrogen, No. 14190). 100 μL of a solution containing DELFIA Eu-N1 Anti-Phosphotyrosine PT66 antibody (Perkin Elmer, No.: AD0040, diluted 1:9000 in DELFIA test buffer (Perkin Elmer, No.: 1244-111)) is then added and it is incubated for 1 h at RT (shaking at 500 rpm). Then the plate is washed five times with 200 μL/well DELFIA washing buffer (Perkin Elmer, No.: 1244-114), 200 μL/well strengthening solution (Perkin Elmer, No.: 1244-105) is added and the whole is incubated for 10 min at RT (shaking at 300 rpm).
The time-delayed europium fluorescence is then measured in a microtitre plate reader (Victor, Perkin Elmer). The positive control consists of wells that contain solvent (0.5% DMSO in test buffer) and display uninhibited kinase activity. Wells that contain test buffer instead of enzyme act as a control for the background kinase activity.
The IC50 values are determined from concentration-activity analyses by iterative calculation using a sigmoid curve analysis algorithm (FIFTY, based on Graph PAD Prism Version 3.03) with a variable Hill coefficient.

T1 sequence (Q05397 whole entry): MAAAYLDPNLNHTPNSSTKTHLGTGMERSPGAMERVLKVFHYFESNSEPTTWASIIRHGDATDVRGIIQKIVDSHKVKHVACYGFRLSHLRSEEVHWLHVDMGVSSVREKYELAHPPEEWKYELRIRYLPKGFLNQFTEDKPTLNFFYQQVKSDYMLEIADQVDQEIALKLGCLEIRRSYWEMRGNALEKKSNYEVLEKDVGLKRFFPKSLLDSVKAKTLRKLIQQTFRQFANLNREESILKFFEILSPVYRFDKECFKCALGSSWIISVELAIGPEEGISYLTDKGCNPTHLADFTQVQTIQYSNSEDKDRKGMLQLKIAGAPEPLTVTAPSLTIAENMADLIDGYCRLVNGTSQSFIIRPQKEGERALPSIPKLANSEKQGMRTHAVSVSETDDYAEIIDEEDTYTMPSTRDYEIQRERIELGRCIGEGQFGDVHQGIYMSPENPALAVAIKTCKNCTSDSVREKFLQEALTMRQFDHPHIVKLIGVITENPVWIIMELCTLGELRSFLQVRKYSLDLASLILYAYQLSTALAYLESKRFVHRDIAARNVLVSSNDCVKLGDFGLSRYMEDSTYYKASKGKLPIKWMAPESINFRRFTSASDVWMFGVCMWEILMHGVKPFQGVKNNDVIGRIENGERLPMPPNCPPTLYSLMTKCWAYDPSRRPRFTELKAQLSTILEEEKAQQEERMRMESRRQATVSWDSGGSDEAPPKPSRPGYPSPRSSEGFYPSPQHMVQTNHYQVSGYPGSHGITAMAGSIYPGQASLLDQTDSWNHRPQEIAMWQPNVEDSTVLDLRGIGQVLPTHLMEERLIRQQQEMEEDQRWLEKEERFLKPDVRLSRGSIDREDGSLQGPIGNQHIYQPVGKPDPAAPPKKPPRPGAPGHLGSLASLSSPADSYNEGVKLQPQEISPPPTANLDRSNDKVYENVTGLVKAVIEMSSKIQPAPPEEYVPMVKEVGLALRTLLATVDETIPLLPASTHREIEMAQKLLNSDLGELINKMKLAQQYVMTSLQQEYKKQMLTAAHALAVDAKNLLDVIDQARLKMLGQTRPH

Row | SMILES | IC50
1 | COc1ccc(C(=O)N(C)C2CCN(C)CC2)cc1Nc1ncc(C(F)(F)F)c(N[C@@H]2CCC[C@H]2N(C)S(C)(=O)=O)n1 [Example I-176] | 0.44 nM
2 | COc1cc(C(=O)NC2CCN(C)CC2)ccc1Nc1ncc(C(F)(F)F)c(N[C@@H]2CC=CC[C@H]2N(C)S(C)(=O)=O)n1 [Example I-151] | 0.67 nM
3 | COc1cc(NC(C)=O)c(F)cc1Nc1ncc(C(F)(F)F)c(N[C@@H]2CCCC[C@H]2N(C)S(C)(=O)=O)n1 [Example I-159] | 0.9 nM
4 | CCc1cc(Nc2ncc(C(F)(F)F)c(N[C@@H]3CCCC[C@H]3N(C)S(C)(=O)=O)n2)c(OC)cc1N1CCN(C)CC1 [Example I-160] | 0.71 nM
5 | COc1cc(N2CCN(C)CC2)c(Cl)cc1Nc1ncc(C(F)(F)F)c(N[C@@H]2CCC[C@H]2N(C)S(C)(=O)=O)n1 [Example I-139] | 0.49 nM
6 | COCCNC(=O)c1ccc(OC)c(Nc2ncc(C(F)(F)F)c(N[C@@H]3CCCC[C@H]3NS(C)(=O)=O)n2)c1 [Example I-181] | 0.43 nM
7 | COc1cc(N2CCN(C(C)(C)C)CC2)c(Cl)cc1Nc1ncc(Cl)c(N[C@@H]2CCCC[C@H]2N(C)S(C)(=O)=O)n1 [Example I-185] | 1 nM
8 | COc1cc(C(=O)NN2CCN(C)CC2)c(F)cc1Nc1ncc(C(F)(F)F)c(N[C@@H]2CCC[C@H]2N(C)S(C)(=O)=O)n1 [Example I-136] | 0.28 nM
9 | COc1ccc(C(=O)NC2CCN(C)CC2)cc1Nc1ncc(Cl)c(N[C@@H]2CCC[C@H]2N(C)S(C)(=O)=O)n1 [Example I-179] | 0.46 nM
10 | CNC(=O)c1cc(Nc2ncc(C(F)(F)F)c(N[C@@H]3CCCC[C@H]3NS(C)(=O)=O)n2)c(OC)cc1F [Example I-194] | 0.71 nM
11 | COc1ccc(NC(=O)[C@@H]2CCCN2C)cc1Nc1ncc(Cl)c(N[C@@H]2CCCC[C@H]2N(C)S(C)(=O)=O)n1 [Example I-191] | 10 nM
12 | COCCN1CCC(NC(=O)c2cc(OC)c(Nc3ncc(C(F)(F)F)c(N[C@@H]4CCC[C@H]4N(C)S(C)(=O)=O)n3)cc2F)CC1 [Example I-130] | 0.24 nM
13 | COc1ccc(C(=O)NC2CCN(C)CC2)cc1Nc1ncc(C(F)(F)F)c(N[C@@H]2CCCC[C@H]2NC(C)=O)n1 [Example I-180] | 0.43 nM
14 | COc1ccc(NC(=O)C2CCN(C)CC2)cc1Nc1ncc(Cl)c(N[C@@H]2CCCC[C@H]2N(C)S(C)(=O)=O)n1 [Example I-192] | 2 nM
15 | COc1cc(F)c(C(=O)NC2CCOCC2)cc1Nc1ncc(C(F)(F)F)c(N[C@@H]2CCCC[C@H]2NS(C)(=O)=O)n1 [Example I-193] | 0.72 nM
16 | COc1cc(N2CCN(C(C)(C)C)CC2)c(C)cc1Nc1ncc(Cl)c(N[C@@H]2CCCC[C@H]2N(C)S(C)(=O)=O)n1 [Example I-184] | 1 nM

What follows are molecules tested against T1, PTK2 enzyme (assay: PTK2 enzyme test, Assay 1 (DELFIA, poly-Glu-Tyr substrate, antibody PT60)). Settings: Assay 1 (values without *); 1 h pre-incubation, 2% DMSO.
Format: biochemical
Method in brief: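 Active PTK2 (0.01 µg/well) preincubated 1 h at RT with compound (duplicates, 2% DMSO final), then reacted 1 h at RT with poly(Glu,Tyr) 4:1 plus biotinylated poly(Glu,Tyr) and an ATP mix containing 50 μM ATP. EDTA-stopped, streptavidin-captured product detected by Eu-PT60 anti-phosphotyrosine DELFIA; IC50 by variable-Hill sigmoid fit.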

Row | SMILES | IC50
17 | COc1cc(C(=O)NC2CCN(C)CC2)ccc1Nc1ncc(C(F)(F)F)c(N[C@@H]2CCCC[C@H]2NC(=O)CN2CCN(C)CC2)n1 [Example I-66] | 200 nM
18 | CNC(=O)c1ccc(Nc2ncc(C(F)(F)F)c(N[C@@H]3CCCC[C@H]3NC(C)=O)n2)c(OC)c1 [Example I-6] | 4 nM
19 | COc1cc(C(=O)NC2CCN(C)CC2)ccc1Nc1ncc(C(F)(F)F)c(N[C@@H]2CCCC[C@H]2N(C)C)n1 [Example I-34] | 71 nM
20 | CNCc1ccc(Nc2ncc(C(F)(F)F)c(N[C@@H]3CCCC[C@H]3NC(=O)COC)n2)c(OC)c1 [Example I-78] | 4 nM
21 | COc1cc(N2CCN(C(C)(C)C)CC2)ccc1Nc1ncc(Br)c(N[C@@H]2CCCC[C@H]2N(C)S(C)(=O)=O)n1 [Example I-182] | 4 nM
22 | CNC(=O)c1cc(OC)c(Nc2ncc(C(F)(F)F)c(N[C@@H]3CCCC[C@H]3NC(C)=O)n2)cc1F [Example I-85] | 2 nM
23 | COc1cc(C(=O)NC2CCN(C)CC2)c(F)cc1Nc1ncc(C(F)(F)F)c(N[C@@H]2CCCC[C@H]2NC(C)=O)n1 [Example I-154] | 1 nM
24 | COc1ccc(Nc2ncc(Cl)c(N[C@@H]3CCCC[C@H]3NC(C)=O)n2)c(OC)c1 [Example I-67] | 10 nM
25 | COc1cc(CN2CCCC2)ccc1Nc1ncc(C(F)(F)F)c(N[C@@H]2CCCC[C@H]2NC(C)=O)n1 [Example I-117] | 1 nM
26 | COc1cc(C(=O)NC2CCN(C)CC2)ccc1Nc1ncc(C(F)(F)F)c(N[C@@H]2CCCC[C@H]2NC(=O)C(C)C)n1 [Example I-12] | 3 nM
27 | COc1cc(C(=O)NC2CCN(C)CC2)ccc1Nc1ncc(C(F)(F)F)c(N[C@@H]2CCCC[C@H]2NC(=O)C(C)(C)C)n1 [Example I-16] | 4 nM
28 | CCN1CCC(NC(=O)c2ccc(Nc3ncc(Cl)c(N[C@@H]4CCCC[C@H]4NC(C)=O)n3)c(OC)c2)CC1 [Example I-61] | 1 nM
29 | COc1cc(N2CCN(C)CC2)ccc1Nc1ncc(C(F)(F)F)c(N[C@@H]2CCCC[C@H]2NC(=O)CC(C)C)n1 [Example I-33] | 70 nM
30 | COc1cc(C(=O)NC2CCN(C)CC2)ccc1Nc1ncc(C(F)(F)F)c(N[C@@H]2CCCC[C@H]2N(C)C(=O)C2CC2)n1 [Example I-83] | 4 nM
31 | COc1cc(C(=O)N(C)C)ccc1Nc1ncc(C(F)(F)F)c(N[C@@H]2CCCC[C@H]2N(C)C(C)=O)n1 [Example I-72] | 31 nM
32 | CCCC(=O)N[C@@H]1CCCC[C@H]1Nc1nc(Nc2ccc(C(=O)NC3CCN(C)CC3)cc2OC)ncc1C(F)(F)F [Example I-19] | 4 nM
33 | COc1cc(N2CCN(C)CC2)ccc1Nc1ncc(C(F)(F)F)c(N[C@@H]2CCCC[C@H]2NC(=O)C(C)C)n1 [Example I-30] | 5 nM
